Test results from patent US11472811B2, “Pyrazolotriazolopyrimidine derivatives as A2A receptor antagonist” (BEIGENE, LTD., priority 2018, dated 2022).

These compounds were tested against human A2A receptor (A2AR) (Homo sapiens (Human), UniProt P29274) (assay: Luciferase reporter assay (HEK293-A2AR-luc2p/CRE/Hygro cells)). Conditions: 3 nM CGS21680, 5 h incubation.
Assay type: cell-based
Outline: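 HEK293 cells stably expressing human A2AR and a CRE-luc2P reporter were seeded in 1% FBS with 1 U/mL adenosine deaminase. After 18 h they were stimulated 5 h with 3 nM CGS21680 plus compound (0.1–10000 nM), then luciferase luminescence was read. IC50 was taken from inhibition curves, with CGS21680 alone set as 100%.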

Chain of human A2A receptor (A2AR) (P29274 whole entry): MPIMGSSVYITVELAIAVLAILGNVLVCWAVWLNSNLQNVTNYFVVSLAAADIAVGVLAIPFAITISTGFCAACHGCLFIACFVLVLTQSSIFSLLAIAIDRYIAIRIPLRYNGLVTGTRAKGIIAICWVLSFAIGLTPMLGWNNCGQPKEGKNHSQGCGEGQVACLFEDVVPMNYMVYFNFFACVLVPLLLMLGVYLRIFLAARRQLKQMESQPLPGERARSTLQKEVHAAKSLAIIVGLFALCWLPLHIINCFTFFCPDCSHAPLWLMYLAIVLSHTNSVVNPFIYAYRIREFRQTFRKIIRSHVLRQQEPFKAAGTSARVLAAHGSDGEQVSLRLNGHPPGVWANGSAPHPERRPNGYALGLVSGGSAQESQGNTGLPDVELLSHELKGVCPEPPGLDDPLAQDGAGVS

| SMILES | IC50 [nM] |
| --- | --- |
| CC(C(=O)NCC1(O)COC1)(c1ccccc1)n1ncc2c1nc(N)n1nc(-c3ccco3)nc21 (centres unmarked) [Example 31, 2-(5-amino-2-(furan-2-yl)-7H-pyrazolo[4,3-e][1,2,4]triazolo[1,5-c]pyrimidin-7-yl)-N-((3-hydroxyoxetan-3-yl)methyl)-2-phenylpropanamide] | 5.8 |
| Nc1nc2c(cnn2C(C(=O)NCc2ccccc2)c2ccccc2)c2nc(-c3ccco3)nn12 (centres unmarked) [Example 1, 2-(5-amino-2-(furan-2-yl)-7H-pyrazolo[4,3-e][1,2,4]triazolo[1,5-c]pyrimidin-7-yl)-N-benzyl-2-phenylacetamide] | 1.4 |
| Nc1nc2c(cnn2C(C(=O)N[C@H]2CCOc3ccccc32)c2ccccc2)c2nc(-c3ccco3)nn12 (stereo partly drawn) [Example 16, 2-(5-amino-2-(furan-2-yl)-7H-pyrazolo[4,3-e][1,2,4]triazolo[1,5-c]pyrimidin-7-yl)-N—((S)-chroman-4-yl)-2-phenylacetamide] | 44.6 |
| CC(C(=O)NCCc1ccccc1)(c1ccccc1)n1ncc2c1nc(N)n1nc(-c3ccco3)nc21 (centres unmarked) [Example 30, 2-(5-amino-2-(furan-2-yl)-7H-pyrazolo[4,3-e][1,2,4]triazolo[1,5-c]pyrimidin-7-yl)-N-phenethyl-2-phenylpropanamide] | 10.8 |
| CC(C(=O)NCCN1CCNCC1)(c1ccccc1)n1ncc2c1nc(N)n1nc(-c3ccco3)nc21 (centres unmarked) [Example 45, 2-(5-amino-2-(furan-2-yl)-7H-pyrazolo[4,3-e][1,2,4]triazolo[1,5-c]pyrimidin-7-yl)-2-phenyl-N-(2-(piperazin-1-yl)ethyl)propanamide] | 22.4 |
| Nc1nc2c(cnn2C(C(=O)N[C@H]2CCCC[C@H]2O)c2ccccc2)c2nc(-c3ccco3)nn12 (stereo partly drawn) [Example 91, 2-(5-amino-2-(furan-2-yl)-7H-pyrazolo[4,3-e][1,2,4]triazolo[1,5-c]pyrimidin-7-yl)-N-((1S,2R)-2-hydroxycyclohexyl)-2-phenylacetamide] | 15.1 |
| CC(C(=O)N[C@@H]1CCCNC1)(c1ccccc1)n1ncc2c1nc(N)n1nc(-c3ccco3)nc21 (stereo partly drawn) [Example 67, 2-(5-amino-2-(furan-2-yl)-7H-pyrazolo[4,3-e][1,2,4]triazolo[1,5-c]pyrimidin-7-yl)-2-phenyl-N—((R)-piperidin-3-yl)propanamide] | 75.5 |
| CC(C(=O)NC1CCCC(O)C1)(c1ccccc1)n1ncc2c1nc(N)n1nc(-c3ccco3)nc21 (centres unmarked) [Example 99, 2-(5-amino-2-(furan-2-yl)-7H-pyrazolo[4,3-e][1,2,4]triazolo[1,5-c]pyrimidin-7-yl)-N-(3-hydroxycyclohexyl)-2-phenylpropanamide] | 12 |
| CC(C(=O)N[C@H]1CCCNC1)(c1ccccc1)n1ncc2c1nc(N)n1nc(-c3ccco3)nc21 (stereo partly drawn) [Example 68, 2-(5-amino-2-(furan-2-yl)-7H-pyrazolo[4,3-e][1,2,4]triazolo[1,5-c]pyrimidin-7-yl)-2-phenyl-N—((S)-piperidin-3-yl)propanamide] | 72.1 |
| CC(C(=O)N[C@@H]1CCCOC1)(c1ccccc1)n1ncc2c1nc(N)n1nc(-c3ccco3)nc21 (stereo partly drawn) [Example 60, 2-(5-amino-2-(furan-2-yl)-7H-pyrazolo[4,3-e][1,2,4]triazolo[1,5-c]pyrimidin-7-yl)-2-phenyl-N—((R)-tetrahydro-2H-pyran-3-yl)propanamide] | 8.2 |
| CC(C(=O)NC1CCC(=O)CC1)(c1ccccc1)n1ncc2c1nc(N)n1nc(-c3ccco3)nc21 (centres unmarked) [Example 128, 2-(5-amino-2-(furan-2-yl)-7H-pyrazolo[4,3-e][1,2,4]triazolo[1,5-c]pyrimidin-7-yl)-N-(4-oxocyclohexyl)-2-phenylpropanamide] | 12.8 |
| Nc1nc2c(cnn2C(C(=O)NCc2cccc(C3(O)CCC3)n2)c2ccccc2)c2nc(-c3ccco3)nn12 (centres unmarked) [Example 18, 2-(5-amino-2-(furan-2-yl)-7H-pyrazolo[4,3-e][1,2,4]triazolo[1,5-c]pyrimidin-7-yl)-N-((6-(1-hydroxycyclobutyl)pyridin-2-yl)methyl)-2-phenylacetamide] | 0.9 |
| CC(C(=O)N[C@H]1CCC[C@H]1O)(c1ccccc1)n1ncc2c1nc(N)n1nc(-c3ccco3)nc21 (stereo partly drawn) [Example 47, 2-(5-amino-2-(furan-2-yl)-7H-pyrazolo[4,3-e][1,2,4]triazolo[1,5-c]pyrimidin-7-yl)-N-((1S,2R)-2-hydroxycyclopentyl)-2-phenylpropanamide] | 12.8 |
| CC(C(=O)N[C@H]1CCCC[C@H]1O)(c1ccccc1)n1ncc2c1nc(N)n1nc(-c3ccco3)nc21 (stereo partly drawn) [Example 56, 2-(5-amino-2-(furan-2-yl)-7H-pyrazolo[4,3-e][1,2,4]triazolo[1,5-c]pyrimidin-7-yl)-N-((1S,2R)-2-hydroxycyclohexyl)-2-phenylpropanamide] | 10.9 |
| CC(Cc1ccccc1)(C(=O)NCC1(O)COC1)n1ncc2c1nc(N)n1nc(-c3ccco3)nc21 (centres unmarked) [Example 132, 2-(5-amino-2-(furan-2-yl)-7H-pyrazolo[4,3-e][1,2,4]triazolo[1,5-c]pyrimidin-7-yl)-N-((3-hydroxyoxetan-3-yl)methyl)-2-methyl-3-phenylpropanamide] | 15.7 |
| COc1ccc(C(C)(C(=O)NCC2(O)COC2)n2ncc3c2nc(N)n2nc(-c4ccco4)nc32)cc1 (centres unmarked) [Example 86, 2-(5-amino-2-(furan-2-yl)-7H-pyrazolo[4,3-e][1,2,4]triazolo[1,5-c]pyrimidin-7-yl)-N-((3-hydroxyoxetan-3-yl)methyl)-2-(4-methoxyphenyl)propanamide] | 85.9 |
| CC(C(=O)NC1CCCCC1)(c1ccccc1)n1ncc2c1nc(N)n1nc(-c3ccco3)nc21 (centres unmarked) [Example 43, 2-(5-amino-2-(furan-2-yl)-7H-pyrazolo[4,3-e][1,2,4]triazolo[1,5-c]pyrimidin-7-yl)-N-cyclohexyl-2-phenylpropanamide] | 4.1 |
| CC(C(=O)Nc1ccncc1)(c1ccccc1)n1ncc2c1nc(N)n1nc(-c3ccco3)nc21 (centres unmarked) [Example 65, 2-(5-amino-2-(furan-2-yl)-7H-pyrazolo[4,3-e][1,2,4]triazolo[1,5-c]pyrimidin-7-yl)-2-phenyl-N-(pyridin-4-yl)propanamide] | 25.5 |
| Nc1nc2c(cnn2C(C(=O)NCc2ccc(C(F)(F)F)cc2)c2ccccc2)c2nc(-c3ccco3)nn12 (centres unmarked) [Example 29, 2-(5-amino-2-(furan-2-yl)-7H-pyrazolo[4,3-e][1,2,4]triazolo[1,5-c]pyrimidin-7-yl)-2-phenyl-N-(4-(trifluoromethyl)benzyl)acetamide] | 1.3 |
| CC(C(=O)N[C@H]1CCCOC1)(c1ccccc1)n1ncc2c1nc(N)n1nc(-c3ccco3)nc21 (stereo partly drawn) [Example 59, 2-(5-amino-2-(furan-2-yl)-7H-pyrazolo[4,3-e][1,2,4]triazolo[1,5-c]pyrimidin-7-yl)-2-phenyl-N—((S)-tetrahydro-2H-pyran-3-yl)propanamide] | 11.1 |
| CC(C(=O)Nc1ccccn1)(c1ccccc1)n1ncc2c1nc(N)n1nc(-c3ccco3)nc21 (centres unmarked) [Example 77, 2-(5-amino-2-(furan-2-yl)-7H-pyrazolo[4,3-e][1,2,4]triazolo[1,5-c]pyrimidin-7-yl)-2-phenyl-N-(pyridin-2-yl)propanamide] | 15.3 |

Other lines, results leading:

| IC50 [nM] | SMILES |
| --- | --- |
| 9.1 | C[C@](C(=O)N[C@H]1C[C@@H](O)C1)(c1ccccc1)n1ncc2c1nc(N)n1nc(-c3ccco3)nc21 [Example 104B, (R)-2-(5-amino-2-(furan-2-yl)-7H-pyrazolo[4,3-e][1,2,4]triazolo[1,5-c]pyrimidin-7-yl)-(cis)-N-(3-hydroxycyclobutyl)-2-phenylpropanamide] |
| 6 | C[C@](C(=O)NCc1cc(F)ccn1)(c1ccccc1)n1ncc2c1nc(N)n1nc(-c3ccco3)nc21 [Example 118B, (R)-2-(5-amino-2-(furan-2-yl)-7H-pyrazolo[4,3-e][1,2,4]triazolo[1,5-c]pyrimidin-7-yl)-N-((4-fluoropyridin-2-yl)methyl)-2-phenylpropanamide] |
| 41.6 | CC1(O)CCC(NC(=O)[C@](C)(c2ccccc2)n2ncc3c2nc(N)n2nc(-c4ccco4)nc32)CC1 (stereo in doubt) [Example 69A, (S)-2-(5-amino-2-(furan-2-yl)-7H-pyrazolo[4,3-e][1,2,4]triazolo[1,5-c]pyrimidin-7-yl)-(cis)-N-(4-hydroxy-4-methylcyclohexyl)-2-phenylpropanamide] |
| 12.6 | C[C@@](C(=O)N[C@@H]1CCC[C@@H]1O)(c1ccccc1)n1ncc2c1nc(N)n1nc(-c3ccco3)nc21 [Example 48A, (S)-2-(5-amino-2-(furan-2-yl)-7H-pyrazolo[4,3-e][1,2,4]triazolo[1,5-c]pyrimidin-7-yl)-N-((1R,2S)-2-hydroxycyclopentyl)-2-phenylpropanamide] |
| 10.7 | C[C@](C(=O)N[C@H]1C[C@H](O)C1)(c1ccccc1)n1ncc2c1nc(N)n1nc(-c3ccco3)nc21 [Example 102B, (R)-2-(5-amino-2-(furan-2-yl)-7H-pyrazolo[4,3-e][1,2,4]triazolo[1,5-c]pyrimidin-7-yl)-(trans)-N-(3-hydroxycyclobutyl)-2-phenylpropanamide] |
| 5 | CC1(O)CC(NC(=O)[C@@](C)(c2ccccc2)n2ncc3c2nc(N)n2nc(-c4ccco4)nc32)C1 (stereo in doubt) [Example 105B, (R)-2-(5-amino-2-(furan-2-yl)-7H-pyrazolo[4,3-e][1,2,4]triazolo[1,5-c]pyrimidin-7-yl)-(cis)-N-(3-hydroxy-3-methylcyclobutyl)-2-phenylpropanamide] |
| 2.5 | Cc1cccc(CNC(=O)[C@@](C)(c2ccccc2)n2ncc3c2nc(N)n2nc(-c4ccco4)nc32)n1 [Example 108B, (R)-2-(5-amino-2-(furan-2-yl)-7H-pyrazolo[4,3-e][1,2,4]triazolo[1,5-c]pyrimidin-7-yl)-N-((6-methylpyridin-2-yl)methyl)-2-phenylpropanamide] |
| 3.2 | C[C@](C(=O)NCc1ccc(F)cn1)(c1ccccc1)n1ncc2c1nc(N)n1nc(-c3ccco3)nc21 [Example 117B, (R)-2-(5-amino-2-(furan-2-yl)-7H-pyrazolo[4,3-e][1,2,4]triazolo[1,5-c]pyrimidin-7-yl)-N-((5-fluoropyridin-2-yl)methyl)-2-phenylpropanamide] |
